From publication PMC9848257, “Design and synthesis of novel rigid dibenzo[b,f]azepines through ring closure technique as promising anticancer candidates against leukaemia and acting as selective topoisomerase II inhibitors and DNA intercalators” (Journal of Enzyme Inhibition and Medicinal Chemistry, 2023)

Experiments:
leukaemia SR cells = assay: Anti-proliferative effect against SR cell line (MTT assay); assay type: cell-based; conditions: Homo sapiens; leukaemia SR cells; unit as in head of Table 3; read-out: Cytotoxicity IC50, SR
Method: The anti-proliferative effect of the 5e counterpart against the SR cell line was estimated using the MTT assay protocol.
Depending on the previous results, the cytotoxic activity of the designed candidate 5e was then evaluated against leukaemia SR cells. Doxorubicin was also evaluated as a reference drug.

[1] = tested on: Solid Ehrlich carcinoma (SEC); assay: In vivo anti-tumour activity in SEC-bearing mice; parameters: species or system Swiss albino mice; conditions: 6 mg/Kg B.W., IP
Method: (§1) The full methodology of tumour induction, treatments, and blood measurements was carried out according to the described details in the supporting information (SI 5). Moreover, the experimental protocol was approved by the Research Ethics Committee at Suez Canal University (Approval number REC139/2022, Chemistry Department, Faculty of Science, Suez Canal University). […]
SI 5.1. Animals and tumor cell line
Adult female Swiss albino mice purchased from Theodor Bilharzia Research Institute, Giza, Egypt, with an average body weight of (18-23) g was used. Mice were housed under constant conditions of 12 h light/dark cycle in a […], with free access to standard laboratory mice food and water.
All procedures related to care and maintenance of the animals were performed according to the international guiding principles for animal research and approved by Faculty of Science, Suez Canal University bioethics and animal ethics committee (Approval number REC-01-2022).
Solid Ehrlich carcinoma (SEC) were got from the National Cancer Institute (Cairo University, Egypt). The tumor cell line was proliferated in mice through serial intraperitoneal (I.P.) transplantation of a volume of 0.2 mL physiological saline contains 1 × 10^6 viable cells for 24 h. SEC cells were collected 7 days after I.P. implantation. The harvested cells were diluted with saline to obtain a concentration of 5 × 10^6 viable SEC cells/mL. A volume of 0.2 mL saline contains 1 × 10^6 SEC cells […]
(§2) that were I.P. implanted into each normal mouse. SEC cells (1 × 10^6 tumor cells/mouse) were implanted subcutaneously into the right thigh of the hind limb.
(§3) The experimental animals were randomly divided into four groups. Group 1 served as the normal saline control. Group 2 served as the SEC control (1 × 10^6 cells/mouse). Group 3 served as the compound-treated group (6 mg/kg B.Wt., I.P.). Group 4 received the standard anticancer drug of […]
(§4) survival were recorded daily until the 24th day in both treated and control groups. At the end of experiment, the blood of each group was collected under light anesthesia for estimation of hematological and biochemical assays. The anesthetized animals were then sacrificed for evaluation of the antitumor activity and histopathological examination.
SI 5.2. Antitumor potentiality
It includes tumor volume, weight, and tumor inhibition ration (TIR%). Time interval measurements of tumor volume using digital Vernier caliper (Tricle Brand, Shanghai, China). Measure tumor length and width using clipper and then calculate tumor volume using formulations V = (L x W x W)/2, where V is tumor volume, W is tumor width, L is tumor length. While TIR% was calculated according to the following equation: […]. […]

[2] = Cytotoxic effect against normal cell line; assay type: cell-based; conditions: human, normal cell line PSC-800-011; read-out: Cytotoxicity IC50, PSC-800-011
Method: Following, the cytotoxic effect of compound 5e against a normal cell line, PSC-800–011, was also assigned to evaluate the selectivity of the compound towards the cancer cell lines. […] However, the selectivity index (SI) of compound 5e was also calculated to confirm its selectivity. It was known that any sample that has an SI value higher than 3 will be considered to have high selectivity.

[3] = Liver enzymes (ALT, AST) in SEC-bearing mice; assay type: in vivo, Swiss albino mice; conditions: 6 mg/Kg B.W., IP
Method: as §1, §2, §3
as §4, with “examination. […]” for “examination.”
At the end of the experiment, animals from different groups were sacrificed, and blood samples were collected for determination of liver enzymes ALT, AST levels. Activities of aspartate aminotransferase (AST) and alanine aminotransferase (ALT) were evaluated using commercial kits (ELITech clinical systems, France). […]

Work on `COc1cccc2c1C(=O)c1c(O)c3c(c(O)c1C2=O)C[C@@](O)(C(=O)CO)C[C@@H]3O[C@H]1C[C@H](N)[C@H](O)[C@H](C)O1` [Doxorubicin, reference compound] yielded an IC50 (leukaemia SR cells) of 3.78 ± 0.14 µM, a Solid tumour mass ([1]; SEC control 226 mg) of 82.3 mg and a Tumour volume ([1]; SEC control 80.6 mm^3) of 27.5 mm^3. The IC50 [2] was 12.8 ± 0.79 µM, the ALT ([3]; SEC control 65.9 U/L) was 34.8 U/L and the AST ([3]; SEC control 71 U/L) was 35.6 U/L.
